Assay results taken from patent US8759318B2, “Phosphoramidate derivatives of guanosine nucleoside compounds for treatment of viral infections” (Inhibitex, Inc., priority 2009, dated 2014).
Read-outs that look alike come from different tables or passages of the source.

Legend:
[1] = system: HCV replicon (Genotype 1b); assay: Luciferase genotype 1b replicon potency assay; settings: Hepatitis C virus
in vitro = settings: human
[2] = GETYPE1B, read-out: IC50 μM, HCV genotype 1b luciferase replicon, Renilla luciferase reporter

`CCOc1nc(N)nc2c1ncn2C1O[C@H](COP(=O)(N[C@@H](C)C(=O)O[C@@H](C)c2ccccc2)Oc2cccc3ccccc23)[C@@H](O)[C@@]1(C)O` (stereo partly drawn) [Example 75, (2S)-((S)-1-phenylethyl) 2-((((2R,3R,4R)-5-(2-amino-6-ethoxy-9H-purin-9-yl)-3,4-dihydroxy-4-methyltetrahydrofuran-2-yl)methoxy)(naphthalen-1-yloxy)phosphorylamino)propanoate] showed an IC50 [1, 2] of 0.063 µM and a CC50 (in vitro) of 12 µM.

Compound `CCOc1nc(N)nc2c1ncn2C1O[C@H](COP(=O)(N[C@H](C(=O)OCC(C)(C)C)C(C)C)Oc2cccc3ccccc23)[C@@H](O)[C@@]1(C)O` (stereo partly drawn) [Example 79, (2S)-neopentyl 2-((((2R,3R,4R)-5-(2-amino-6-ethoxy-9H-purin-9-yl)-3,4-dihydroxy-4-methyltetrahydrofuran-2-yl)methoxy)(naphthalen-1-yloxy)phosphorylamino)-3-methylbutanoate] has an IC50 [1, 2] of 0.22 µM and a CC50 (in vitro) of 24 µM.

Compound `COc1nc(N)nc2c1ncn2C1O[C@H](COP(=O)(N[C@@H](C(=O)OC2CCCCC2)c2ccccc2)Oc2cccc3ccccc23)[C@@H](O)[C@@]1(C)O` (stereo partly drawn) [Example 71, (2R)-cyclohexyl 2-((((2R,3R,4R)-5-(2-amino-6-methoxy-9H-purin-9-yl)-3,4-dihydroxy-4-methyltetrahydrofuran-2-yl)methoxy)(naphthalen-1-yloxy)phosphorylamino)-2-phenylacetate] has an IC50 [1, 2] of 2.5 µM and a CC50 (in vitro) of 26 µM.

In the case of `COc1nc(N)nc2c1ncn2C1O[C@H](COP(=O)(N[C@@H](C)C(=O)OC2Cc3ccccc3C2)Oc2cccc3ccccc23)[C@@H](O)[C@@]1(C)O` (stereo partly drawn) [Example 16, (2S)-2,3-dihydro-1H-inden-2-yl 2-((((2R,3R,4R)-5-(2-amino-6-methoxy-9H-purin-9-yl)-3,4-dihydroxy-4-methyltetrahydrofuran-2-yl)methoxy) (naphthalen-1-yloxy)phosphorylamino)propanoate], the IC50 [1, 2] is reported as 0.027 µM and the CC50 (in vitro) is reported as 11 µM.

Work on `COc1nc(N)nc2c1ncn2C1O[C@H](COP(=O)(N[C@@H](C)C(=O)OC2CCOCC2)Oc2cccc3ncccc23)[C@@H](O)[C@@]1(C)O` (stereo partly drawn) [Example 32, (2S)-tetrahydro-2H-pyran-4-yl 2-((((2R,3R,4R)-5-(2-amino-6-methoxy-9H-purin-9-yl)-3,4-dihydroxy-4-methyltetrahydrofuran-2-yl)methoxy)(quinolin-5-yloxy)phosphorylamino)propanoate] yielded an IC50 [1, 2] of 1.2 µM and a CC50 (in vitro) of over 100 µM.

`COc1nc(N)nc2c1ncn2C1O[C@H](COP(=O)(N[C@@H](C)C(=O)OCCC(C)(C)C)Oc2cccc3ccccc23)[C@@H](O)[C@@]1(C)O` (stereo partly drawn) [Example 18, (2S)-3,3-dimethylbutyl 2-((((2R,3R,4R)-5-(2-amino-6-methoxy-9H-purin-9-yl)-3,4-dihydroxy-4-methyltetrahydrofuran-2-yl)methoxy)(naphthalen-1-yloxy)phosphorylamino)propanoate] showed an IC50 [1, 2] of 0.013 µM and a CC50 (in vitro) of 7.6 µM.

`COc1nc(N)nc2c1ncn2C1O[C@H](COP(=O)(N[C@H](C(=O)OCC(C)(C)C)C(C)C)Oc2cccc3cccnc23)[C@@H](O)[C@@]1(C)O` (stereo partly drawn) [Example 53, (2S)-neopentyl 2-((((2R,3R,4R)-5-(2-amino-6-methoxy-9H-purin-9-yl)-3,4-dihydroxy-4-methyltetrahydrofuran-2-yl)methoxy)(quinolin-8-yloxy)phosphorylamino)-3-methylbutanoate] showed an IC50 [1, 2] of 0.88 µM and a CC50 (in vitro) of over 100 µM.

`COc1nc(N)nc2c1ncn2C1O[C@H](COP(=O)(N[C@H](C(=O)OC2CCCCC2)C(C)C)Oc2cccc3ccccc23)[C@@H](O)[C@@]1(C)O` (stereo partly drawn) [Example 46] showed an IC50 [1, 2] of 0.42 µM and a CC50 (in vitro) of 24 µM.

Compound `COc1nc(N)nc2c1ncn2C1O[C@H](COP(=O)(N[C@H](C(=O)OCC(C)(C)C)C(C)C)Oc2cc(C(C)(C)C)cc3ccccc23)[C@@H](O)[C@@]1(C)O` (stereo partly drawn) [Example 55] has an IC50 [1, 2] of 2.1 µM and a CC50 (in vitro) of 13 µM.

`C[C@H](NP(=O)(OC[C@H]1OC(n2cnc3c(NCCc4ccccc4)nc(N)nc32)[C@](C)(O)[C@@H]1O)Oc1cccc2ccccc12)C(=O)OCC(C)(C)C` (stereo partly drawn) [Example 87, (2S)-neopentyl 2-((((2R,3R,4R)-5-(2-amino-6-(phenethylamino)-9H-purin-9-yl)-3,4-dihydroxy-4-methyltetrahydrofuran-2-yl)methoxy)(naphthalen-1-yloxy)phosphorylamino)propanoate] showed an IC50 [1, 2] of 0.27 µM and a CC50 (in vitro) of 42 µM.

`COc1nc(N)nc2c1ncn2C1O[C@H](CO[P@](=O)(N[C@@H](C)C(=O)OCC(C)(C)C)Oc2cccc3ccccc23)[C@@H](O)[C@@]1(C)O` (single isomer, unassigned) [Example 22] showed an IC50 [1, 2] of 0.019 µM and a CC50 (in vitro) of 6 µM.

With `CCOc1nc(N)nc2c1ncn2C1O[C@H](COP(=O)(N[C@@H](C)C(=O)OCC(C)(C)C)Oc2cccc3ccccc23)[C@@H](O)[C@@]1(C)O` (stereo partly drawn) [Example 76] the IC50 [1, 2] was 0.01 µM and the CC50 (in vitro) was 10 µM.

Compound `COc1nc(N)nc2c1ncn2C1O[C@H](COP(=O)(N[C@H](C(=O)OCc2ccccc2)C(C)C)Oc2cccc3ccccc23)C[C@@]1(C)O` (stereo partly drawn) [Example 99, benzyl (2S)-benzyl 2-((((2S,4R)-5-(2-amino-6-methoxy-9H-purin-9-yl)-4-hydroxy-4-methyltetrahydrofuran-2-yl)methoxy)(naphthalen-1-yloxy)phosphorylamino)-3-methylbutanoate] has an IC50 [1, 2] of over 10 µM and a CC50 (in vitro) of 22 µM.

`CCC(C)[C@H](NP(=O)(OC[C@H]1OC(n2cnc3c(OC)nc(N)nc32)[C@](C)(O)[C@@H]1O)Oc1cccc2ccccc12)C(=O)OCC(C)(C)C` (stereo partly drawn) [Example 62] showed an IC50 [1, 2] of 0.86 µM and a CC50 (in vitro) of 18 µM.

`CNc1nc(N)nc2c1ncn2C1O[C@H](COP(=O)(N[C@@H](C)C(=O)OCC(C)(C)C)Oc2cccc3ccccc23)[C@@H](O)[C@@]1(C)O` (stereo partly drawn) [Example 81, (2S)-neopentyl 2-((((2R,3R,4R)-5-(2-amino-6-(methylamino)-9H-purin-9-yl)-3,4-dihydroxy-4-methyltetrahydrofuran-2-yl)methoxy)(naphthalen-1-yloxy)phosphorylamino)propanoate] gave an IC50 ([1]; read-out: IC50 μM) of 0.033 µM and a CC50 (in vitro) of 48 µM.

`COc1nc(N)nc2c1ncn2C1O[C@H](COP(=O)(N[C@@H](CCSC)C(=O)O[C@@H](C)c2ccccc2)Oc2cccc3ccccc23)[C@@H](O)[C@@]1(C)O` (stereo partly drawn) [Example 59, (2S)-((S)-1-phenylethyl) 2-((((2R,3R,4R)-5-(2-amino-6-methoxy-9H-purin-9-yl)-3,4-dihydroxy-4-methyltetrahydrofuran-2-yl)methoxy)(naphthalen-1-yloxy)phosphorylamino)-4-(methylthio)butanoate] showed an IC50 [1, 2] of 0.32 µM and a CC50 (in vitro) of 30 µM.

Work on `COc1nc(N)nc2c1ncn2C1O[C@H](COP(=O)(N[C@@H](C)C(=O)OC2CCCCC2)Oc2cccc3ccccc23)[C@@H](O)[C@@]1(C)O` (stereo partly drawn) [Example 25, (2S)-cyclohexyl 2-((((2R,3R,4R)-5-(2-amino-6-methoxy-9H-purin-9-yl)-3,4-dihydroxy-4-methyltetrahydrofuran-2-yl)methoxy)(naphthalen-1-yloxy)phosphorylamino)propanoate] yielded an IC50 [1, 2] of 0.014 µM and a CC50 (in vitro) of 6 µM.

In the case of `COc1nc(N)nc2c1ncn2C1O[C@H](COP(=O)(N[C@@H](C)C(=O)OC2CCOCC2)Oc2cccc3ccccc23)[C@@H](O)[C@@]1(C)O` (stereo partly drawn) [Example 26, (2S)-tetrahydro-2H-pyran-4-yl 2-((((2R,3R,4R)-5-(2-amino-6-methoxy-9H-purin-9-yl)-3,4-dihydroxy-4-methyltetrahydrofuran-2-yl)methoxy)(naphthalen-1-yloxy)phosphorylamino)propanoate], the IC50 [1, 2] is reported as 0.08 µM and the CC50 (in vitro) is reported as 130 µM.

For `COc1nc(N)nc2c1ncn2C1O[C@H](COP(=O)(N[C@H](C(=O)O[C@@H](C)c2ccccc2Br)C(C)C)Oc2cccc3ccccc23)[C@@H](O)[C@@]1(C)O` (stereo partly drawn) [Example 40, (2S)-((S)-1-(2-bromophenyl)ethyl) 2-((((2R,3R,4R)-5-(2-amino-6-methoxy-9H-purin-9-yl)-3,4-dihydroxy-4-methyltetrahydrofuran-2-yl)methoxy)(naphthalen-1-yloxy)phosphorylamino)-3-methylbutanoate], the IC50 [1, 2] was 2.9 µM and the CC50 (in vitro) was 44 µM.

In the case of `COc1nc(N)nc2c1ncn2C1O[C@H](CO[P@@](=O)(N[C@@H](C)C(=O)OCC(C)(C)C)Oc2cccc3ccccc23)[C@@H](O)[C@@]1(C)O` (stereo partly drawn) [Example 21], the IC50 [1, 2] is reported as 0.043 µM and the CC50 (in vitro) is reported as 13 µM.

For `C[C@H](NP(=O)(OC[C@H]1OC(n2cnc3c(NCc4ccccc4)nc(N)nc32)[C@](C)(O)[C@@H]1O)Oc1cccc2ccccc12)C(=O)OCC(C)(C)C` (stereo partly drawn) [Example 85], the IC50 [1, 2] was 0.58 µM and the CC50 (in vitro) was 15 µM.

`CSc1nc(N)nc2c1ncn2[C@@H]1O[C@H](COP(=O)(N[C@@H](C)C(=O)OCC(C)(C)C)Oc2ccc3ncccc3c2)[C@@H](O)[C@@]1(C)O` (stereo partly drawn) [Example 91, (2S)-neopentyl 2-((((2R,3R,4R,5R)-5-(2-amino-6-(methylthio)-9H-purin-9-yl)-3,4-dihydroxy-4-methyltetrahydrofuran-2-yl)methoxy)(quinolin-6-yloxy)phosphorylamino)propanoate] showed an IC50 [1, 2] of 0.26 µM and a CC50 (in vitro) of over 100 µM.

`COc1nc(N)nc2c1ncn2C1O[C@H](COP(=O)(N[C@@H](C)C(=O)O[C@@H](C)c2ccccc2)Oc2cccc3ccccc23)C[C@@]1(C)O` (stereo partly drawn) [Example 96, (2S)-((S)-1-phenylethyl) 2-((((2S,4R)-5-(2-amino-6-methoxy-9H-purin-9-yl)-4-hydroxy-4-methyltetrahydrofuran-2-yl)methoxy)(naphthalen-1-yloxy)phosphorylamino)propanoate] showed an IC50 [1, 2] of over 10 µM and a CC50 (in vitro) of 20 µM.

`COc1nc(N)nc2c1ncn2C1O[C@H](COP(=O)(N[C@@H](C)C(=O)OC(C)C)Oc2cccc3ccccc23)[C@@H](O)[C@@]1(C)O` (stereo partly drawn) [Example 23, (2S)-isopropyl 2-((((2R,3R,4R)-5-(2-amino-6-methoxy-9H-purin-9-yl)-3,4-dihydroxy-4-methyltetrahydrofuran-2-yl)methoxy)(naphthalen-1-yloxy)phosphorylamino)propanoate] showed an IC50 [1, 2] of 0.43 µM and a CC50 (in vitro) of 100 µM.
